Experiment [1] has as its target T1, Apoptotic protease-activating factor 1 (Homo sapiens, UniProt O14727).
T1 sequence (O14727 whole entry): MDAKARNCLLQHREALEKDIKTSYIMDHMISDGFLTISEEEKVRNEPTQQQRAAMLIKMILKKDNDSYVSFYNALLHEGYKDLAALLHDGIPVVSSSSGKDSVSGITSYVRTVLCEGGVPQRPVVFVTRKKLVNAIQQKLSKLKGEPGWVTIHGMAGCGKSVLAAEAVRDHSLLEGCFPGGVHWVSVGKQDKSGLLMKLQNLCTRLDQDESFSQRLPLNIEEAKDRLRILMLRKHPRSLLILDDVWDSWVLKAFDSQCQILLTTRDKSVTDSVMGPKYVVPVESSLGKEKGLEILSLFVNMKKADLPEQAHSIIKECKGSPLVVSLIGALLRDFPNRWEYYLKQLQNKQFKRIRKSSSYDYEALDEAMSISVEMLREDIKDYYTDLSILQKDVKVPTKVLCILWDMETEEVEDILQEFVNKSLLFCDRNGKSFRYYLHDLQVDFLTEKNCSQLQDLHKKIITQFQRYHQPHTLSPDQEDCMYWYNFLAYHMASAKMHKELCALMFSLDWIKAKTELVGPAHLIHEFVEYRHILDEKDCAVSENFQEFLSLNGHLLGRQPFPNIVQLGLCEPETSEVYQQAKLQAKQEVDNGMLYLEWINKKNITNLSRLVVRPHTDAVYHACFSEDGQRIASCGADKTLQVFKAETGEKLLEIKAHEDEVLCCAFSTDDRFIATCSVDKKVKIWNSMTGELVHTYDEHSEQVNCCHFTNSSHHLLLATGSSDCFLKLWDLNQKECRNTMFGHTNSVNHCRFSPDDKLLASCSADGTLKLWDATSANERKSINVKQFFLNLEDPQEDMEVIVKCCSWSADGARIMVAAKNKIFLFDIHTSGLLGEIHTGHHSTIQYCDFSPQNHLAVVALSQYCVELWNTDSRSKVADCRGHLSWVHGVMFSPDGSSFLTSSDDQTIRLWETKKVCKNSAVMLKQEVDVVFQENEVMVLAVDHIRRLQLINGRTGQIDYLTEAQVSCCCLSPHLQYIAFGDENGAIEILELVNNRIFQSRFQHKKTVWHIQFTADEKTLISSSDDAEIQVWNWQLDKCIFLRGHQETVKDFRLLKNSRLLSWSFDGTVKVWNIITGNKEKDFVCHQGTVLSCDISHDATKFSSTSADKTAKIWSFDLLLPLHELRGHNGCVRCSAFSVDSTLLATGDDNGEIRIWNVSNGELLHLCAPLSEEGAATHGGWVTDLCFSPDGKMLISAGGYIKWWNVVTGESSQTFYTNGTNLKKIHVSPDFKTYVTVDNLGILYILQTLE
The format is functional.

For experiment [2], the target named is T2, Caspase-6 (Homo sapiens, UniProt P55212).
T2 sequence (P55212 whole entry): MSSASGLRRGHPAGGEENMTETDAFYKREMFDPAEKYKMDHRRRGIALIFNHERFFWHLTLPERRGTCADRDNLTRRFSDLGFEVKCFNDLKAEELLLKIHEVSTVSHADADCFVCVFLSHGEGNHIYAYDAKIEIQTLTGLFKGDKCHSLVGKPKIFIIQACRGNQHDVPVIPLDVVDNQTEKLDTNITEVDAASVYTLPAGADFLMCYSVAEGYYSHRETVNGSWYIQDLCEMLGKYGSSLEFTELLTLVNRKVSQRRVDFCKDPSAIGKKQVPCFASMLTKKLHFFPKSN
As to the kind of experiment: human caspase-6 inhibitors, dose response, biochemical, VEID-R110 fluorescence, cherry-pick (AID 720632).

In experiment [3] the target is Caspase-9 (Homo sapiens, UniProt P55211). In words: caspase-9 enzyme inhibition, dose response, selectivity assay for caspase-6 inhibitor project, biochemical, fluorescence, plate reader, cherry-picked samples (AID 743293).
Caspase-9, sequence (P55211 1-315 limits assumed): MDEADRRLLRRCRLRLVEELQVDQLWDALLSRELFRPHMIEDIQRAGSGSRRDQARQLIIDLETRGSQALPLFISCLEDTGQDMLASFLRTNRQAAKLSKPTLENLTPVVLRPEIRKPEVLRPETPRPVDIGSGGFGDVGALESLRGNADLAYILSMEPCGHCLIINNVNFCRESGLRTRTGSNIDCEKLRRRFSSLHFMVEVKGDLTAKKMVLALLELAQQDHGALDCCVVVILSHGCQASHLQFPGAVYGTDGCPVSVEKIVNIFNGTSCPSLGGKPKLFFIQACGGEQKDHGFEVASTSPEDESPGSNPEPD
Caspase-9, sequence (P55211 331-416 limits assumed): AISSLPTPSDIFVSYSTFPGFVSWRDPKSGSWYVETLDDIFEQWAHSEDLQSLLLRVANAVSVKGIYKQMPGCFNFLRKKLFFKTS
For experiment [4], the target named is Tyrosyl-DNA phosphodiesterase 2 (Homo sapiens, UniProt O95551). As to the kind of experiment: human TDP2 enzyme inhibitors, dose response, biochemical, epi absorbance, IC50 (AID 743297).
Tyrosyl-DNA phosphodiesterase 2, sequence (O95551 whole entry): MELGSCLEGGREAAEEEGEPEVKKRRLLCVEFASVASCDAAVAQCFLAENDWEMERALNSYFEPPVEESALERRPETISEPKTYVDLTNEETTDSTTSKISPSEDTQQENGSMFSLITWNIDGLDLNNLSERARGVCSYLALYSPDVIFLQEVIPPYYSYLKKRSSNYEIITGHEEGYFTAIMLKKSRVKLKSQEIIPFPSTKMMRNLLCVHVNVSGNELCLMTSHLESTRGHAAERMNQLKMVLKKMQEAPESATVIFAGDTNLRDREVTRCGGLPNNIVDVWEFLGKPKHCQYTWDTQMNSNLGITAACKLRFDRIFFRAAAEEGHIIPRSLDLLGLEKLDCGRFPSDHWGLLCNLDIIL
The target in experiment [5] is Caspase-7 (Homo sapiens, UniProt P55210). In words: human caspase-7 inhibitors, dose response, selectivity assay for caspase-6 inhibitor project, biochemical, DEVD-R110 fluorescence, cherry-pick (AID 743295). The format is […].
Caspase-7, sequence (P55210 24-198 limits assumed): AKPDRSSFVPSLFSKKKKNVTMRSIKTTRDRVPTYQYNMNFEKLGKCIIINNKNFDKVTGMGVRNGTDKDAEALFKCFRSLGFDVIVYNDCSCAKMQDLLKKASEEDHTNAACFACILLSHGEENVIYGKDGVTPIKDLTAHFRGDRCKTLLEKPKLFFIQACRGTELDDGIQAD
Caspase-7, sequence (P55210 207-303 limits assumed): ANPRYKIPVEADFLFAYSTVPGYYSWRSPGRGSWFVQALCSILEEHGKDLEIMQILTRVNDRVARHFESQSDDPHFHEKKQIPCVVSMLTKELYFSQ
Experiment [6] concerns the target Caspase-8 (Homo sapiens, UniProt Q14790). In words: caspase-8 inhibition counter-screen, dose response, selectivity assay for caspase-6 inhibitor project, biochemical, Z-IETD-R110 fluorescence, cherry-picked samples (AID 743294). A general note: A counterscreen serves to expose hits that act by an unwanted route or on another target.
Experiment [7] has as its target SUMO-activating enzyme (Homo sapiens, UniProt Q9UBT2). In words: SUMOylation inhibitor hit validation, confirmation, SUMOylation inhibitor project, biochemical, AlphaScreen (AID 2018). The experiment is classed as functional.
For experiment [8], the target named is Hexokinase HKDC1 (Homo sapiens, UniProt Q2TB90). In words: HKDC1 hexokinase inhibitors, dose response, biochemical, W721R variant (AID 504729). The experiment is classed as functional.
Hexokinase HKDC1, sequence (Q2TB90 whole entry): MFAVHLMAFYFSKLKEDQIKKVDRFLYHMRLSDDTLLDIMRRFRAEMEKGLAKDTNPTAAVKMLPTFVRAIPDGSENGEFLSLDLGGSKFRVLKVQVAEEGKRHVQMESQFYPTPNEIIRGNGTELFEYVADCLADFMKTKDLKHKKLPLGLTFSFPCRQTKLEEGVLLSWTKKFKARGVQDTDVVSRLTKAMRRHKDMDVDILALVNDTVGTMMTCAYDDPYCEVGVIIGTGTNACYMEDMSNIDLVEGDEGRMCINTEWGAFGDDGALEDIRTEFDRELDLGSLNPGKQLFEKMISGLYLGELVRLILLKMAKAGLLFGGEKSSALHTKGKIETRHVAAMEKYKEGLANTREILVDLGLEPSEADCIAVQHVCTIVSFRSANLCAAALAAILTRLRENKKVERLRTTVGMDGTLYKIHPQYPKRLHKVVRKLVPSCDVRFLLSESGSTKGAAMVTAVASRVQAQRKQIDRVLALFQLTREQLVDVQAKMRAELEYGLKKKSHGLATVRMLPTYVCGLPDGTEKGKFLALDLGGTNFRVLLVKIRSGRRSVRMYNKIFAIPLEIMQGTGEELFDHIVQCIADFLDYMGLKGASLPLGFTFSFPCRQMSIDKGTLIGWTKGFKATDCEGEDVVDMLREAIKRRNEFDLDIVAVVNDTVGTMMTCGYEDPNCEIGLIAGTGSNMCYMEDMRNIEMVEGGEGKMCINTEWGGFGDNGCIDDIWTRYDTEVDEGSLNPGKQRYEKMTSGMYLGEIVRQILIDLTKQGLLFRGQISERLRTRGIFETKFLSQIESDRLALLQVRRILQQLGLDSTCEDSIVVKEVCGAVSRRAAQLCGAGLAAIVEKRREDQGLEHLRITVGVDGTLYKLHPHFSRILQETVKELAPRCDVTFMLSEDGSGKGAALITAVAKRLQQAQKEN
For experiment [9], the target named is T3, Microphthalmia-associated transcription factor (Homo sapiens, UniProt O75030).
T3 sequence (O75030 whole entry): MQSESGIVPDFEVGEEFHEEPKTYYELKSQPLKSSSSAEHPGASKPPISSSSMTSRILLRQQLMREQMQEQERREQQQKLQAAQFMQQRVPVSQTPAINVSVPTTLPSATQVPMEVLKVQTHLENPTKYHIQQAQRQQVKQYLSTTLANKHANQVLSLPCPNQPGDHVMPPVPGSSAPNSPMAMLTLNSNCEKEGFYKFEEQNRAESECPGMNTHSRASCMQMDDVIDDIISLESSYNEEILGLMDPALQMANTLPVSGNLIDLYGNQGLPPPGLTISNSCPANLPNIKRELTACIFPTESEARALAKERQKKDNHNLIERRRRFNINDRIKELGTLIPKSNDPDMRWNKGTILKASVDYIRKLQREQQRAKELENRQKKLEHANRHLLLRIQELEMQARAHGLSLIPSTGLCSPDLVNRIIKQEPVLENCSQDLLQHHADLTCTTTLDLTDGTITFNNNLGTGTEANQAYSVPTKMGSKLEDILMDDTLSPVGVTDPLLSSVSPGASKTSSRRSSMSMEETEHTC
In words: TRPM1 promoter luciferase signal decrease, dose response, MITF inhibitor project, cell-based, SK-MEL-5, cherry-picked, set 3 (AID 493073).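 Also: SK-MEL-5 melanoma cells with luciferase driven by the MITF target TRPM1 promoter.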 The experiment is classed as functional.

Experiment [10] relates to Vero. In words: Vero cell cytotoxicity, cytotoxicity control for flavivirus capping enzyme inhibitors (AID 588742). The format is functional. Particulars: Chlorocebus sabaeus.
Experiment [11] deals with T4, Polyadenylate-binding protein 1 (Homo sapiens, UniProt P11940). As to the kind of experiment: PABP1 MLLE–PAM2 interaction inhibitors, dose response, miRNA deadenylation inhibitor project, biochemical, fluorescence polarization, Cy5-PAM2 peptide, secondary (AID 602260). The format is functional. Particulars: read-out: IC50_Mean. (Polarisation of emitted light reports the rotation of a fluorescent probe.)
T4 sequence (P11940 whole entry): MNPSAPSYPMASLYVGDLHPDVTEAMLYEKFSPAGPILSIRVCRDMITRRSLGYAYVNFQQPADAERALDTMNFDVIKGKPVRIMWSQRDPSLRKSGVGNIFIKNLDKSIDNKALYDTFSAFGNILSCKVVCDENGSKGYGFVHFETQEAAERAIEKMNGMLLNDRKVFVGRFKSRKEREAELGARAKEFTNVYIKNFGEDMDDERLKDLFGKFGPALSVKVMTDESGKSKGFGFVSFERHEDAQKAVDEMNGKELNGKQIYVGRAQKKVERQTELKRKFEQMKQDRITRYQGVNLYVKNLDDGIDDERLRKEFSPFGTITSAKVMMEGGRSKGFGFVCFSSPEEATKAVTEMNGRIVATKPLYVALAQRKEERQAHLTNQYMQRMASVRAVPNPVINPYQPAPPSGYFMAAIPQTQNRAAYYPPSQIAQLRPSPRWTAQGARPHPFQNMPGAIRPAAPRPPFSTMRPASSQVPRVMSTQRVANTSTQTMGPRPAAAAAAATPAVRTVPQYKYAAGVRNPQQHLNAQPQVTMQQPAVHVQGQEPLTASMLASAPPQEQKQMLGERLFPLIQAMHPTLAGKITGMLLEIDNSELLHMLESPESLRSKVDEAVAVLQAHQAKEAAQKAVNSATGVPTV

Experiment [12] concerns the target T4, Polyadenylate-binding protein 1. In words: PABP1 MLLE–PAM2 binding inhibitor potency, dose response, biochemical, fluorescence polarization, FITC-PAM2 peptide (AID 602259). Particulars: read-out: IC50_Mean. The experiment is classed as functional.

SMILES strings stand for the structures. Active and inactive are the calls of the source.

Caspase-8, sequence (Q14790 217-374 limits assumed): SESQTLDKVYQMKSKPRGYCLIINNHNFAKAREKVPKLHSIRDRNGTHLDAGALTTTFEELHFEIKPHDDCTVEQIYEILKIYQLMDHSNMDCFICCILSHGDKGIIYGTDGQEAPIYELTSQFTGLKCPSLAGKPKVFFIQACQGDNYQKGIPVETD
Caspase-8, sequence (Q14790 385-479 limits assumed): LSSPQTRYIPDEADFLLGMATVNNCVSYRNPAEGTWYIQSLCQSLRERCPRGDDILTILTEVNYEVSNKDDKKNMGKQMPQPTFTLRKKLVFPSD
SUMO-activating enzyme, sequence (Q9UBE0 whole entry): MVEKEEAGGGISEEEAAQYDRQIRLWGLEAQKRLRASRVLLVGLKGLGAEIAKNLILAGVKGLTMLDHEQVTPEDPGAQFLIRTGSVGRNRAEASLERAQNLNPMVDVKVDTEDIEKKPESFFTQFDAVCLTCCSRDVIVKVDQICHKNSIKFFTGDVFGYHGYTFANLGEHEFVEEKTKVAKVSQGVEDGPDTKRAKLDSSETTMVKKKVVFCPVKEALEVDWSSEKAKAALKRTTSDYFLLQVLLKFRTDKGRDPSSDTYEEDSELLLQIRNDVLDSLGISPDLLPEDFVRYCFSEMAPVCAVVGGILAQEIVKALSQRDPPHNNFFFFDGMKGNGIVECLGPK
SUMO-activating enzyme, sequence (Q9UBT2 whole entry): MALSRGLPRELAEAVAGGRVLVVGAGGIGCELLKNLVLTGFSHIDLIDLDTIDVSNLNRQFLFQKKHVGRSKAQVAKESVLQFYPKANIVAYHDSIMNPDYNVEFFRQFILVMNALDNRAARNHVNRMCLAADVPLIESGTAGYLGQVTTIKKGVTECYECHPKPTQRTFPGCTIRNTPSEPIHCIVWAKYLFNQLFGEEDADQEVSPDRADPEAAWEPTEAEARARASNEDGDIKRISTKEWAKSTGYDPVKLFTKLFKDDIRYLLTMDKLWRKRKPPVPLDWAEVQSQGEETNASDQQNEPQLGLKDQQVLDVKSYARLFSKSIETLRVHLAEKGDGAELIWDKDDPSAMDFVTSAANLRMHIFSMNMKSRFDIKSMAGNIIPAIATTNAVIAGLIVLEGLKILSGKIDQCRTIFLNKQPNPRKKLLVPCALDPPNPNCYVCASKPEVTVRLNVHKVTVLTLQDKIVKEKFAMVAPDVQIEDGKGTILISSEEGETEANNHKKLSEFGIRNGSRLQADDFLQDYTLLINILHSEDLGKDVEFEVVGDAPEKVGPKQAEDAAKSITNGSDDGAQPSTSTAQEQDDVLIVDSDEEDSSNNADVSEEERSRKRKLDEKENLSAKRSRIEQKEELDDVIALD

As usually defined, the AC50 is the concentration at which the activity in the assay is half-maximal. As for `COc1cc2c(cc1OC)-c1c(OC)c(OC)cc3c1[C@H](C2)N(C)CC3`, the IC50 is 2.82 µM (active) in [1] and 6.22 µM (active) in [4]. For the same molecule, the AC50 was 0.926 µM (active) in experiment [2], 39.9 µM (active) in experiment [3], 1.77 µM (active) in experiment [5] and 48.1 µM (active) in experiment [6].

Regarding `O=C1C(Cl)=C(N2CCC(C(=O)O)CC2)C(=O)c2ccccc21`, the IC50 in [7] was 5.75 µM (active); in experiment [8], 8.29 µM (active); in experiment [1], 13.4 µM (active).

For orientation: CC50 means the concentration at which the toxic effect on the cells reaches its halfway point. As to `COC1=C(c2ccccc2)C(=O)c2ccccc2C1=O`, the AC50 in experiment [9] is 9.05 µM (active). Besides, the CC50 in experiment [10] is 17.8 µM (active). The IC50 in experiment [11] and in experiment [12] was > 66 µM (inactive) each time.

The values are drawn from ChEMBL document CHEMBL1201862, “PubChem BioAssay data set” (2004).
